US20140030705A1, “SYSTEMS AND METHODS FOR ASSESSING BIOMOLECULE CHARACTERISTICS” (BioNano Genomics, Inc., priority 2010, published 2014)

Tested on: human B cells
Details: 500 μM vs. 0 μM hydrogen peroxide

## OO [hydrogen peroxide]
Average molecule length and labels/100 kb
  average size of the DNA and label incorporation density (FIG. 8B): clear oxidative damage detection in the form of DSBs and SSBs
Triplicate samples
  DNA size histograms of treated vs. untreated cells (FIG. 8A): clear shift to smaller fragment sizes
